Experimental data as given in ChEMBL document CHEMBL5465560, “Selectivity Literature for EUbOPEN Chemogenomic Library” (2024).
One block for each compound: values may come before it.

How the values were obtained:
[1] = target: Citron Rho-interacting kinase (Homo sapiens) (UniProt O14578); assay: Selectivity interaction (KinomeScan (DiscoverX)) EUB0000666a CIT; settings: at 10 µM
[2] = target: T1, Serine/threonine-protein kinase Chk1 (Homo sapiens) (UniProt O14757); assay: Selectivity interaction (Kinase panel (literature)) EUB0001199aCl CHEK1; settings: at 1 µM
T1 sequence (whole entry): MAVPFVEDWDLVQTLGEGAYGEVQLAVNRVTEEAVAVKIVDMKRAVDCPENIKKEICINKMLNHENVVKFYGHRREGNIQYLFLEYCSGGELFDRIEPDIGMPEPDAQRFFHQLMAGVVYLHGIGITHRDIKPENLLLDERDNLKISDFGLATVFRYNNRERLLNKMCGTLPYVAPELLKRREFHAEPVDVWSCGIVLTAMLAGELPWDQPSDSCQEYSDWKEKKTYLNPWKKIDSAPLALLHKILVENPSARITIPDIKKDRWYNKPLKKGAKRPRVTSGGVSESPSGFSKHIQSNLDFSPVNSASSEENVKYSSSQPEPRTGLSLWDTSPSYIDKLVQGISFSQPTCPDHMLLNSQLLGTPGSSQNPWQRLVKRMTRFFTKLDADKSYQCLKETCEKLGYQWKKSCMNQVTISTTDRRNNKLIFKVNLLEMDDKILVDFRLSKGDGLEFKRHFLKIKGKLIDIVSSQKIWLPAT

[3] = target: Glycogen synthase kinase-3 alpha (Homo sapiens, UniProt P49840); assay: Selectivity interaction (SelectScreen profiling (Invitrogen)) EUB0000607a GSK3A; settings: at 2 µM
Chain of Glycogen synthase kinase-3 alpha (P49840 2-483 limits assumed): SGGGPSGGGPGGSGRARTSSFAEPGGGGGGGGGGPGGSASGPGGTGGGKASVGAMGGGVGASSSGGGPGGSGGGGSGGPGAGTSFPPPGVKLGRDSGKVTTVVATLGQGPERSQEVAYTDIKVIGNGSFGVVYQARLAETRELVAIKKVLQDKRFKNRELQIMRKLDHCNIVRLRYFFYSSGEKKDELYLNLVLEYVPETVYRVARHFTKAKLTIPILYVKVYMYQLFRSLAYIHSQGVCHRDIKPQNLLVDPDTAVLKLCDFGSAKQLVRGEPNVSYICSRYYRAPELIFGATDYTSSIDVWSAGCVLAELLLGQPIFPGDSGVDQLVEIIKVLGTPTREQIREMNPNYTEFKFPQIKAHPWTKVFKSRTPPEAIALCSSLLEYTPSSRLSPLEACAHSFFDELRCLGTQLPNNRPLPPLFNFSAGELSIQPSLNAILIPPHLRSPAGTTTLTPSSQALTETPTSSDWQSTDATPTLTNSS

[4] = target: Mitogen-activated protein kinase 1 (Homo sapiens, UniProt P28482); assay: Selectivity interaction (ActivX KiNativ screen (kinase selectivity in THP-1 cell lysates)) EUB0000639a MAPK1; format: subcellular; settings: lysate
Chain of Mitogen-activated protein kinase 1 (P28482 whole entry): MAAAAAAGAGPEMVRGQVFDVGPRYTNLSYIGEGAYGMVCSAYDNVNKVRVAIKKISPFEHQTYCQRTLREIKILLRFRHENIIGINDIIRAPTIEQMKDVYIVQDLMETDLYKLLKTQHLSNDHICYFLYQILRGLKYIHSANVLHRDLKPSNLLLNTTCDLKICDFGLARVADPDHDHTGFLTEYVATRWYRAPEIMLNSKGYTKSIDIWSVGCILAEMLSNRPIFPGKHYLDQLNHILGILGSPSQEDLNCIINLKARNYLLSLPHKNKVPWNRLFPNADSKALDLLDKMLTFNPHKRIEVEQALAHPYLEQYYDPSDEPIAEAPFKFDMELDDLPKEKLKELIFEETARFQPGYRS

[5] = target: T2, Dual specificity tyrosine-phosphorylation-regulated kinase 4 (Homo sapiens) (UniProt Q9NR20); assay: Selectivity interaction (ProQinase) EUB0000171b DYRK4
T2 sequence (whole entry): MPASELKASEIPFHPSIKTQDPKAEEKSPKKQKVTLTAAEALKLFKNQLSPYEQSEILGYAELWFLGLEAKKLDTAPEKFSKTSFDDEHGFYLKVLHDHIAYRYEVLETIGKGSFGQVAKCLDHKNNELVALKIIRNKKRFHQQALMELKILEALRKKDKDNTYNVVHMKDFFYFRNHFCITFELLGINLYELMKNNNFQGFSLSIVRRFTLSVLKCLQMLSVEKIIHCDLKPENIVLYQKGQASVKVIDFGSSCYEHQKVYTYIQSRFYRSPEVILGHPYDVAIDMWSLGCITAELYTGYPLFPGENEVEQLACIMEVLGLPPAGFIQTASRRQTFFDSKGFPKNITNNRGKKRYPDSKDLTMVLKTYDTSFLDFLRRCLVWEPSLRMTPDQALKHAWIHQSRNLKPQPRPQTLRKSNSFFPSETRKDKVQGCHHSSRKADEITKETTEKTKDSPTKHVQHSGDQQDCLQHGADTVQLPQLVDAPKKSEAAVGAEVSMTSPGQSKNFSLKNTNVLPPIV

[6] = target: Death-associated protein kinase 2 (Homo sapiens) (UniProt Q9UIK4); settings: at 10 µM
Chain of Death-associated protein kinase 2 (Homo sapiens) (Q9UIK4 whole entry, looked up): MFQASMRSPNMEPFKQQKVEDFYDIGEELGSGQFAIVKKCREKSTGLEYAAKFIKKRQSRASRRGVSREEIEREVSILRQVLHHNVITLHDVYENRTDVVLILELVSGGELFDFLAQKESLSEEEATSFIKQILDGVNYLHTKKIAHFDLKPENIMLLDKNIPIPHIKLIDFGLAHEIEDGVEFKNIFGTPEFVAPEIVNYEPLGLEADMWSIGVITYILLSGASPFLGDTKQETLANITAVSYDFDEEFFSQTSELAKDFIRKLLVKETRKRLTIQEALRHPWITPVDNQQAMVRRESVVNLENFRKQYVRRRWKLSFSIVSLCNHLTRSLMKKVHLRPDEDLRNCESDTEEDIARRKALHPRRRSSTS

[7] = target: T3, Interleukin-1 receptor-associated kinase 4 (Homo sapiens, UniProt Q9NWZ3); assay: Selectivity interaction (Kinase counterscreening (biochemical assay)) EUB0000604a IRAK4
T3 sequence (Q9NWZ3 whole entry): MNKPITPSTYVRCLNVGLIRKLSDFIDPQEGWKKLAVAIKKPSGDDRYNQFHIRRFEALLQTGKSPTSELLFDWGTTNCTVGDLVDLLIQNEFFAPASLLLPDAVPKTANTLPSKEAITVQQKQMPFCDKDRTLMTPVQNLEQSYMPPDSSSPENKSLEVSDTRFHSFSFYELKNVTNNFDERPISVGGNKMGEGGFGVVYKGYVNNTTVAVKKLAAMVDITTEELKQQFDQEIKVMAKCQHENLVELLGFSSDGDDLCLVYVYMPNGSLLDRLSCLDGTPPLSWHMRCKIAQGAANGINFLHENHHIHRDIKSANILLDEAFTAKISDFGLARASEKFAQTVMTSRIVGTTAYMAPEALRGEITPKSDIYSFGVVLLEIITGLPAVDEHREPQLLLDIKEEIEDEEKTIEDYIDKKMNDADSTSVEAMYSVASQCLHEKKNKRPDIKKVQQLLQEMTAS

[8] = target: Dual specificity mitogen-activated protein kinase kinase 1 (Homo sapiens, UniProt Q02750); assay: Selectivity interaction (KinomeScan (DiscoverX)) EUB0000655a MAP2K1; settings: at 10 µM
Chain of Dual specificity mitogen-activated protein kinase kinase 1 (Q02750 whole entry): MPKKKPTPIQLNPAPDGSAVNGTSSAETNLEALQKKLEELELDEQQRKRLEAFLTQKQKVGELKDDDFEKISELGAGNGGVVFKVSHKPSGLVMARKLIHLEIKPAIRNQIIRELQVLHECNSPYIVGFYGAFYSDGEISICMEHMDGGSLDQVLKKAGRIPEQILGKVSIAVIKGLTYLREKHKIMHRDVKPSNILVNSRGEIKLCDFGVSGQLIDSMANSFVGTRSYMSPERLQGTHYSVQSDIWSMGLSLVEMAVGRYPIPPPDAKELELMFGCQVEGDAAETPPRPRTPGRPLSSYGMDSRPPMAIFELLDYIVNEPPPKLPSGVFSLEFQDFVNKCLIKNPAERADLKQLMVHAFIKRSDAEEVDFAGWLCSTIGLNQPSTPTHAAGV

[9] = target: Receptor tyrosine-protein kinase erbB-4 (Homo sapiens, UniProt Q15303); assay: Selectivity interaction (KinomeScan (DiscoverX)) EUB0000655a ERBB4; settings: at 10 µM
Chain of Receptor tyrosine-protein kinase erbB-4 (Q15303 whole entry): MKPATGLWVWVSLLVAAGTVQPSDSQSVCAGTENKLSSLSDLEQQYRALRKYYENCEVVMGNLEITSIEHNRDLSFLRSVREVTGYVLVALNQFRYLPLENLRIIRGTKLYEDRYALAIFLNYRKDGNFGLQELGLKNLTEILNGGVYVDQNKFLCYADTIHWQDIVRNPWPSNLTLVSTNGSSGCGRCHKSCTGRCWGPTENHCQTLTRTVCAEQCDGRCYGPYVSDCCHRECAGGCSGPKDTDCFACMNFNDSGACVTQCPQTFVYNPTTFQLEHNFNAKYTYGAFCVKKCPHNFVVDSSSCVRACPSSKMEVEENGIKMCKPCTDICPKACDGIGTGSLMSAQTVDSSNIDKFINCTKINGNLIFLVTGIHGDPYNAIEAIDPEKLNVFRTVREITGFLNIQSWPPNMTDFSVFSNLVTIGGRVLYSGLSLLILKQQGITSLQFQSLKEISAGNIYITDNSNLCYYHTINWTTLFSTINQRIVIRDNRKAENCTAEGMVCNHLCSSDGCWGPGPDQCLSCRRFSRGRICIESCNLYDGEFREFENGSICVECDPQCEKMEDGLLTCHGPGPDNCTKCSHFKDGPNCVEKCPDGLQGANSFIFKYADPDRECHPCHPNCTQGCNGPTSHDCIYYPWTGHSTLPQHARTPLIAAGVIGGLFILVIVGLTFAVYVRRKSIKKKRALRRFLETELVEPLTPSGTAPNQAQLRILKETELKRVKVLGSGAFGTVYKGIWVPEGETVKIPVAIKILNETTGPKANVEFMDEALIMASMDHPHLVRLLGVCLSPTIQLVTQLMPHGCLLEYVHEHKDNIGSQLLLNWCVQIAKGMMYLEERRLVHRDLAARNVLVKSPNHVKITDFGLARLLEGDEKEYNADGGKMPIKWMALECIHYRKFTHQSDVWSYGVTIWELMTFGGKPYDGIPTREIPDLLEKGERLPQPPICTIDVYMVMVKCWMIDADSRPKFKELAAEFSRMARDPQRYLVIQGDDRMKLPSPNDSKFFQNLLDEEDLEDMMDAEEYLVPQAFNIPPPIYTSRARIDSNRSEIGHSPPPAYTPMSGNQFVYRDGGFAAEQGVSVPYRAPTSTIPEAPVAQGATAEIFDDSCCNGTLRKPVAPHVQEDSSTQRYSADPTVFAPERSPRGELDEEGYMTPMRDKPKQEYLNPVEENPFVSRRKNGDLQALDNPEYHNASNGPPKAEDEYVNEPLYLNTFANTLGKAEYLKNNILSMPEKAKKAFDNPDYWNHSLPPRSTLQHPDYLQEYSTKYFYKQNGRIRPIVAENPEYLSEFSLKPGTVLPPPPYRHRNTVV

[10] = target: Vascular endothelial growth factor receptor 3 (Homo sapiens, UniProt P35916); assay: Selectivity interaction (KinomeScan (DiscoverX)) EUB0000655a FLT4; settings: at 10 µM
Chain of Vascular endothelial growth factor receptor 3 (P35916 whole entry): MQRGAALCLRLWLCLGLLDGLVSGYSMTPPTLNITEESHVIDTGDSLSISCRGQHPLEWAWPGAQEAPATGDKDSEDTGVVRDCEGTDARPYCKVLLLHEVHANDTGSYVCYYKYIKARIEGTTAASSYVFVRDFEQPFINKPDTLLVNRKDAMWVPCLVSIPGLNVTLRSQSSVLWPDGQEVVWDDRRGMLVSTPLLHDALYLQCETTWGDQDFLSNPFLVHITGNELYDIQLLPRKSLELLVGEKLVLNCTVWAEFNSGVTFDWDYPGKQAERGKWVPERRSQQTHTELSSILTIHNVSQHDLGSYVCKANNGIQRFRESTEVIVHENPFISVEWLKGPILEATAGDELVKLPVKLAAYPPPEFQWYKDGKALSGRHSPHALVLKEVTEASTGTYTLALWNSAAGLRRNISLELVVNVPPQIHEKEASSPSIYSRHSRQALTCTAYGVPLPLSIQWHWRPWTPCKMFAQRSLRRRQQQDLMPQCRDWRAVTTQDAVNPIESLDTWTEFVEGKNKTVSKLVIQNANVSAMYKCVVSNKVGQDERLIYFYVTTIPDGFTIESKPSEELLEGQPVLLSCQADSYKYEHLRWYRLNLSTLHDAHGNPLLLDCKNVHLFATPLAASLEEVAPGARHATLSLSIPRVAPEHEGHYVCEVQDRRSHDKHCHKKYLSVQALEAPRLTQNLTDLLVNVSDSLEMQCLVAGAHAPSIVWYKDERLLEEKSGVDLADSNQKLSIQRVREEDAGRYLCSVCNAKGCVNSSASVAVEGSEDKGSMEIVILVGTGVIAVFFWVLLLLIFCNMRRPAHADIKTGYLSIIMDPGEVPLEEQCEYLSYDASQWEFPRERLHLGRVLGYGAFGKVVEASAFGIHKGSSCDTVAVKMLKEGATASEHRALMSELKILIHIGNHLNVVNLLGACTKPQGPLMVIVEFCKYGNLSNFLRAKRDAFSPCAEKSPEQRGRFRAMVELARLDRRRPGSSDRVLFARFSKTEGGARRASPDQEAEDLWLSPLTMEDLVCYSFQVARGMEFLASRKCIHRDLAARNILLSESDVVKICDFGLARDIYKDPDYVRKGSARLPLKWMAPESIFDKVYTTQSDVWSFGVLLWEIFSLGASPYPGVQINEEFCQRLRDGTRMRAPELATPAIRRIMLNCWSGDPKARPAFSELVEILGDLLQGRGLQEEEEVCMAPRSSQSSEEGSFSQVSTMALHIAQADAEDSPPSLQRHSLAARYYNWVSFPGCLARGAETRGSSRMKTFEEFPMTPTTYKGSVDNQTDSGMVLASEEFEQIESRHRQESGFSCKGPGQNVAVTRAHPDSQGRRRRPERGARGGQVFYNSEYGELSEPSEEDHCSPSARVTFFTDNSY

[11] = target: T4, Homeodomain-interacting protein kinase 4 (Homo sapiens) (UniProt Q8NE63); assay: Selectivity interaction (KinomeScan (DiscoverX)) EUB0000655a HIPK4; settings: at 10 µM
T4 sequence (whole entry): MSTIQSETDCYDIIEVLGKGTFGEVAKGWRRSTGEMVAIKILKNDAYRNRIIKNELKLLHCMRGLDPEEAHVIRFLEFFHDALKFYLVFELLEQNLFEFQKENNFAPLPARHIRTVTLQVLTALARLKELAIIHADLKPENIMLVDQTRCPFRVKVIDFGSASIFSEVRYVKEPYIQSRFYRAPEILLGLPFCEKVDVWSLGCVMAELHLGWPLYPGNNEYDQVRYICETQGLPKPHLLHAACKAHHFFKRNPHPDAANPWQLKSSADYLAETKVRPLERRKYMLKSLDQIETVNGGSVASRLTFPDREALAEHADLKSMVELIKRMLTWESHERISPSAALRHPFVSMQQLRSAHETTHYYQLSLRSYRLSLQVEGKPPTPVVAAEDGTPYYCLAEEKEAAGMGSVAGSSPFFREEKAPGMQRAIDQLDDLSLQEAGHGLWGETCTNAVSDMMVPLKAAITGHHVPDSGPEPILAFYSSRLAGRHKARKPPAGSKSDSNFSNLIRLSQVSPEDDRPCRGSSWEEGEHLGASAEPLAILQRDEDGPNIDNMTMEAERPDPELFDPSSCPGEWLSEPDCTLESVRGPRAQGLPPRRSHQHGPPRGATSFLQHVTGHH

[12] = target: Ribosomal protein S6 kinase alpha-3 (Homo sapiens, UniProt P51812); assay: Selectivity interaction (KinomeScan (DiscoverX)) EUB0000092b RPS6KA3; settings: at 10 µM
Chain of Ribosomal protein S6 kinase alpha-3 (P51812 whole entry): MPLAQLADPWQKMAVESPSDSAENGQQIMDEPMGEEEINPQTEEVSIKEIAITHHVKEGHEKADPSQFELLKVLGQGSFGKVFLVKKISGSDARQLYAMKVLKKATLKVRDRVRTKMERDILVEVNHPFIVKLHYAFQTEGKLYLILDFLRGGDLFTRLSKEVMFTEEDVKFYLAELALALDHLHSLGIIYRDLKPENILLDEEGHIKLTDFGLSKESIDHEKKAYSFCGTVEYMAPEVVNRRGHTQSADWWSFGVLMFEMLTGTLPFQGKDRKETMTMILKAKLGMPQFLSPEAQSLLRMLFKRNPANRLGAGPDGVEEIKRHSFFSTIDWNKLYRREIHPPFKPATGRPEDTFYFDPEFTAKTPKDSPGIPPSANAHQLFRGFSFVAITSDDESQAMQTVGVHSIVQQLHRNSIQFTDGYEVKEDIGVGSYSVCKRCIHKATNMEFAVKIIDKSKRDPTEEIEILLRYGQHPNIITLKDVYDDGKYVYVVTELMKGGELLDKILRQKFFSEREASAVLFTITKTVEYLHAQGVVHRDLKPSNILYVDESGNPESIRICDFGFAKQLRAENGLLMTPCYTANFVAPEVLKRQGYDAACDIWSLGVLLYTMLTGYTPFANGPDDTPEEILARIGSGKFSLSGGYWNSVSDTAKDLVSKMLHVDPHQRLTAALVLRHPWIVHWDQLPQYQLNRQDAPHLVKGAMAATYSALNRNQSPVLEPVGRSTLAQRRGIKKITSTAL

[13] = target: T5, Interleukin-1 receptor-associated kinase 4 (Homo sapiens) (UniProt Q9NWZ3); assay: Selectivity interaction (ActivX KiNativ screen (ex vivo kinase selectivity in human PBMCs)) EUB0001619a IRAK4; format: cell-based; settings: PBMC, at 1 µM
T5 sequence (whole entry): T3 sequence (Q9NWZ3 whole entry)

SMILES: O=C(NOC[C@H](O)CO)c1ccc(F)c(F)c1Nc1ccc(I)cc1F
% of control [1]: 100%

% of inhibition [2]: 7%
SMILES: CN1Cc2nccc(-c3cn(C)nc3-c3ccc(F)cc3)c2C1=O

SMILES: CNC(=O)Nc1ccc(-c2nc(N3CC4CCC(C3)O4)c3cnn(C4CCC5(CC4)OCCO5)c3n2)cc1
% of inhibition [3]: -1%

% of inhibition ([4]; at 0.01 µM): -8.4% | % of inhibition ([4]; at 0.04 µM): -6% | % of inhibition ([4]; at 0.2 µM): 0.3% | % of inhibition ([4]; at 1 µM): -16.3% | % of inhibition ([4]; at 5 µM): -11.6%
SMILES: CC[C@@H]1[C@H](F)C(=O)N[C@@H]1COc1nccc2cc(C(N)=O)c(OC)cc12 [ZIMLOVISERTIB]

% of control ([5]; at 1 µM): 90% | % of control ([5]; at 5 µM): 84%
SMILES: C=CC(=O)Nc1cccc(C(=O)Nc2ccc(Nc3cc(-c4[nH]c(SC)nc4C)ccn3)cc2)c1

SMILES: COCC(=O)NC/C=C/c1ccc2ncnc(Nc3ccc(Oc4ccc(C)nc4)c(C)c3)c2c1 [CP-724714]
% of control [6]: 89%

SMILES: Cc1cnc(Nc2ccc(F)cc2Cl)nc1-c1c[nH]c(C(=O)N[C@H](CO)c2cccc(Cl)c2)c1
Ki [7]: > 4 µM

SMILES: CN(C)CCOc1ccc(-c2nc(-c3ccncc3)c(-c3ccc4c(c3)CC/C4=N\O)[nH]2)cc1
% of control [8]: 99% | % of control [9]: 73% | % of control [10]: 100% | % of control [11]: 18%

SMILES: CCC(=O)N1CCN(c2ccc(-n3c(=O)ccc4cnc5ccc(-c6cnc7ccccc7c6)cc5c43)cc2C(F)(F)F)CC1
% of control [12]: 38%

SMILES: N#Cc1cccc(-c2c[nH]c3ncnc(N4CCOCC4)c23)c1
% of inhibition [13]: 11%
